Series [1] has as its system Bos taurus. The experiment in a line: Toxicity in intramammary dosed Holstein bovine assessed as increase in somatic cell count in dosed after morning milking by irritancy test. As to conditions: cattle, other. Type of series: organism-based.
Series [2] can be described thus: Drug level in milk of lactating Holstein bovine mastitis model at 2.5X10'6 IU, intramammary administered once daily for 3 days measured after 48 hrs. Type of series: ADME, Bos taurus. As to conditions: cattle, other.
Series [3] concerns Bos taurus. Kind of series: Toxicity in Holstein bovine assessed as visible local reaction at 5X10'6 IU, intramammary dosed in right forequarter of mammary gland after morning milking after 24 hrs by irritancy test. The series is classed as organism-based. As to conditions: cattle, in vivo, other.
For series [4], the system named is Bos taurus. The experiment in a line: Toxicity in intramammary dosed Holstein bovine assessed as increase in N-acetyl-beta-D-[…] in milk dosed after morning milking by irritancy test. Type of series: organism-based. The note with it: cattle, in vivo, other.
Series [5] concerns Bos taurus. Kind of series: Toxicity in Holstein bovine assessed as decreased milk yeild at 1.25X10'6 IU, intramammary dosed in left hindquarter of mammary gland of mammary gland after morning milking by irritancy test. The series is classed as organism-based. The note with it: cattle, in vivo, other.
Series [6] deals with Bos taurus. The experiment in a line: Toxicity in Holstein bovine assessed as visible local reaction at 2.5X10'6 IU, intramammary dosed in right hindquarter of mammary gland after morning milking by irritancy test. The series is classed as organism-based. As to conditions: cattle, in vivo, other.
For series [7], the system named is Bos taurus. Kind of series: Toxicity in Holstein bovine assessed as decreased milk yeild at 2.5X10'6 IU, intramammary dosed in right hindquarter of mammary gland after morning milking by irritancy test. The note with it: cattle, in vivo, other. The series is classed as organism-based.
Series [8] can be described thus: Drug level in milk of lactating bovine subclinical mastitis model at 2.5X10'6 IU after 24 hrs. The series is classed as ADME, Bos taurus. As to conditions: cattle.
In series [9] the test system is Bos taurus. Kind of series: Toxicity in Holstein bovine assessed as visible local reaction with swollen and tender mammary gland at 5X10'6 IU, intramammary dosed in right forequarter of mammary gland after morning milking by irritancy test. Type of series: organism-based. As to conditions: cattle, in vivo, other.
Series [10] is described as follows: Drug level in milk of lactating bovine subclinical mastitis model at 2.5X10'6 IU after 48 hrs. Type of series: ADME, Bos taurus. As to conditions: cattle.
The subject of series [11] is Bos taurus. Kind of series: Toxicity in Holstein bovine assessed as visible local reaction at 1.25X10'6 IU, intramammary dosed in left hindquarter of mammary gland after morning milking by irritancy test. Type of series: organism-based. The note with it: cattle, in vivo, other.
Series [12] in a line: Drug level in milk of lactating bovine clinical mastitis model at 2.5X10'6 IU, intramammary dosed twice daily for 3 days measured after 12 hrs. The series is classed as ADME, organism-based, Bos taurus. The note with it: cattle, in vivo, other.
The subject of series [13] is Bos taurus. Kind of series: Toxicity in Holstein bovine assessed as decreased milk yeild with clots and flakes in milk at 5X10'6 IU, intramammary dosed in right forequarter of mammary gland after morning milking by irritancy test. The note with it: cattle, in vivo, other. The series is classed as organism-based.
Series [14] can be described thus: Drug level in milk of lactating Holstein bovine mastitis model at 2.5X10'6 IU, intramammary administered once daily for 3 days measured after 24 hrs. The series is classed as ADME, Bos taurus. As to conditions: cattle, other.
The test system of series [15] is Staphylococcus aureus. Kind of series: Antibacterial activity against Staphylococcus aureus isolated from milk of Holstein bovine subclinical mastitis model after 2 hrs. Type of series: functional.
A further series has as its system Streptococcus agalactiae. Kind of series: Antibacterial activity against Streptococcus agalactiae in lactating Holstein bovine subclinical mastitis model assessed as reduction in intramammary infections at 2.5X10'6 IU, intramammary dosed after morning milking relative to control. Further details: scale not given: the % may be the effect or the level left. The series is classed as functional.

In series [16] the test system is Bos taurus. The experiment in a line: Antiinflammatory activity in lactating Holstein bovine subclinical mastitis model assessed as reduction in number of mammary gland quarters with somatic cell count of >=5X10'5/ml at 2.5X10'6 IU, intramammary dosed after morning milking measured after 1 week. Type of series: functional. Further details: scale not given: the % may be the effect or the level left.

Series [17] has as its system Bos taurus. Kind of series: Antiinflammatory activity in lactating Holstein bovine subclinical mastitis model assessed as reduction in number of mammary gland quarters with somatic cell count of >=5X10'5/ml at 2.5X10'6 IU, intramammary dosed after morning milking measured after 2 weeks. The series is classed as functional. Further details: scale not given: the % may be the effect or the level left.

Series [18] deals with Bos taurus. Kind of series: Antiinflammatory activity in lactating Holstein bovine subclinical mastitis model assessed as reduction in N-acetyl-beta-D-[…] activity at 2.5X10'6 IU, intramammary dosed after morning milking measured after 1 week. The series is classed as functional.
Series [19] has as its system Staphylococcus aureus. Kind of series: Antibacterial activity against Staphylococcus aureus in lactating Holstein bovine subclinical mastitis model assessed as reduction in intramammary infections at 2.5X10'6 IU, intramammary dosed after morning milking relative to control. The series is classed as functional. Further details: scale not given: the % may be the effect or the level left.

In series [20] the test system is Bos taurus. The experiment in a line: Antiinflammatory activity in lactating Holstein bovine subclinical mastitis model assessed as reduction in N-acetyl-beta-D-[…] activity at 2.5X10'6 IU, intramammary dosed after morning milking measured after 2 weeks. The series is classed as functional.
Another series has as its system Staphylococcus. The experiment in a line: Antibacterial activity against coagulase-negative Staphylococcus infected in lactating Holstein bovine subclinical mastitis model assessed as reduction in intramammary infections at 2.5X10'6 IU, intramammary dosed after morning milking relative to control. The series is classed as functional. Further details: scale not given: the % may be the effect or the level left.

In series [21] the test system is Staphylococcus aureus. The experiment in a line: Sensitivity of Staphylococcus aureus isolated from lactating Holstein bovine subclinical mastitis model at 10 ug/disk after 20 hrs. As to conditions: read-out: IZ. The series is classed as functional.
For series [22], the system named is Staphylococcus aureus. Kind of series: Resistance of Staphylococcus aureus isolated from lactating Holstein bovine subclinical mastitis model at 10 ug/disk after 20 hrs. The series is classed as functional.
The test system of series [23] is Staphylococcus aureus. Kind of series: Resistance of Staphylococcus aureus isolated from lactating Holstein bovine subclinical mastitis model at 5 ug/disk after 20 hrs. Type of series: functional.
Series [24] concerns Staphylococcus aureus. The experiment in a line: Sensitivity of Staphylococcus aureus isolated from lactating Holstein bovine subclinical mastitis model at 5 ug/disk after 20 hrs. The series is classed as functional. As to conditions: read-out: IZ.
For series [25], the system named is Staphylococcus aureus. Kind of series: Resistance of Staphylococcus aureus isolated from lactating Holstein bovine subclinical mastitis model at 30 ug/disk after 20 hrs. Type of series: functional.
For series [26], the system named is Staphylococcus aureus. Kind of series: Sensitivity of Staphylococcus aureus isolated from lactating Holstein bovine subclinical mastitis model at 30 ug/disk after 20 hrs. Type of series: functional. As to conditions: read-out: IZ.
The mark [27] stands for this setting: Staphylococcus aureus, 20 h, read-out: IZ.

We go through six compounds from ChEMBL document CHEMBL1154401, “Therapeutic effect of nisin Z on subclinical mastitis in lactating cows” (Antimicrob Agents Chemother, 2007).

`C=C(NC(=O)[C@@H](NC(=O)[C@H](Cc1c[nH]cn1)NC(=O)[C@@H](NC(=O)[C@H](CO)NC(=O)[C@@H]1CS[C@@H](C)[C@H]2NC(=O)[C@H](C)NC(=O)[C@H](NC(=O)[C@H](CCCCN)NC(=O)[C@H](CCSC)NC(=O)[C@H](CC(N)=O)NC(=O)[C@@H]3CS[C@@H](C)[C@@H](NC(=O)[C@H](CCCCN)NC(=O)[C@@H]4CS[C@@H](C)[C@@H](NC(=O)[C@@H]5CSC[C@@H](NC(=O)/C(=C/C)NC(=O)[C@@H](N)[C@@H](C)CC)C(=O)N[C@@H]([C@@H](C)CC)C(=O)NC(=C)C(=O)N[C@@H](CC(C)C)C(=O)N5)C(=O)N5CCC[C@H]5C(=O)NCC(=O)N4)C(=O)NCC(=O)N[C@@H](C)C(=O)N[C@@H](CC(C)C)C(=O)N[C@@H](CCSC)C(=O)NCC(=O)N3)[C@H](C)SC[C@H](NC2=O)C(=O)N[C@@H](CC(N)=O)C(=O)N1)[C@@H](C)CC)C(C)C)C(=O)N[C@@H](CCCCN)C(=O)O`: the Activity entry in the series on Bos taurus [1] was “Dose-dependent effect”; in the series with Bos taurus [3], “Toxic”; in the series with Bos taurus [4], “Dose-dependent effect”; in the series with Bos taurus [5], “Non-toxic”; with Bos taurus [6] it was “Non-toxic”; with Bos taurus [7] it was “Non-toxic”. Besides, the Activity was 83 IU/ml in [8], “Toxic” in the series with Bos taurus [9], “Non-toxic” in the series with Bos taurus [11] and “Toxic” in the series on Bos taurus [13]. For the same compound, the Drug uptake in [2] is on record as 5.7 IU/ml; in series [10], 15 IU/ml; in series [12], 4.5 IU/ml; in series [14], 75.8 IU/ml.
In the series with Staphylococcus aureus [15], `C=C(NC(=O)[C@@H](NC(=O)[C@H](Cc1cnc[nH]1)NC(=O)[C@@H](NC(=O)[C@H](CO)NC(=O)[C@@H]1CS[C@@H](C)[C@H]2NC(=O)[C@H](C)NC(=O)[C@H](NC(=O)[C@H](CCCCN)NC(=O)[C@H](CCSC)NC(=O)[C@H](CC(N)=O)NC(=O)[C@@H]3CS[C@@H](C)[C@@H](NC(=O)[C@H](CCCCN)NC(=O)[C@@H]4CS[C@@H](C)[C@@H](NC(=O)[C@@H]5CSC[C@@H](NC(=O)/C(=C/C)NC(=O)[C@@H](N)[C@@H](C)CC)C(=O)N[C@@H]([C@@H](C)CC)C(=O)NC(=C)C(=O)N[C@@H](CC(C)C)C(=O)N5)C(=O)N5CCC[C@H]5C(=O)NCC(=O)N4)C(=O)NCC(=O)N[C@@H](C)C(=O)N[C@@H](CC(C)C)C(=O)N[C@@H](CCSC)C(=O)NCC(=O)N3)[C@H](C)SC[C@H](NC2=O)C(=O)N[C@@H](CC(N)=O)C(=O)N1)[C@@H](C)CC)C(C)C)C(=O)N[C@@H](CCCCN)C(=O)O` had an MIC of 75.5 IU/ml. Also, the Activity in the series with Streptococcus agalactiae is recorded as 90.9%; in the series on Bos taurus [16] it was 58.7%; in the series on Bos taurus [17], 70.5%; with Bos taurus [18], 26.2 U/ml; in the series on Staphylococcus aureus [19], 50%; in the series on Bos taurus [20], 28.9 U/ml. The Activity in the series with Staphylococcus came out at 58.8%.
Turning to `CC1(C)S[C@@H]2[C@H](NC(=O)Cc3ccccc3)C(=O)N2[C@H]1C(=O)O` [PENICILLIN G], the zone of inhibition at 10 µg/disc is no less than 29 mm with Staphylococcus aureus [21] and no more than 28 mm in the series on Staphylococcus aureus [22] (setting [27]). In the series on Staphylococcus aureus [22], the Activity is reported as 80%.
With `CCn1cc(C(=O)O)c(=O)c2cc(F)c(N3CCNCC3)cc21` [NORFLOXACIN], in the series on Staphylococcus aureus [23], the Activity was 75%. The zone of inhibition at 5 µg/disc in the series with Staphylococcus aureus [23] (setting [27]) is no more than 12 mm; in the series with Staphylococcus aureus [24], no less than 17 mm.
As for GENTAMICIN, the Activity in the series on Staphylococcus aureus [22] was found to be 45%.
`Cc1nnc(SCC2=C(C(=O)O)N3C(=O)[C@@H](NC(=O)Cn4cnnn4)[C@H]3SC2)s1` [CEFAZOLIN]: in the series on Staphylococcus aureus [25], the Activity was found to be 5%. Besides, the zone of inhibition at 30 µg/disc was no more than 14 mm in the series on Staphylococcus aureus [25] (setting [27]) and no less than 18 mm with Staphylococcus aureus [26].
